From patent US9624229B2, “Pyrimidine-2-amine compounds and their use as inhibitors of JAK kinases” (Rigel Pharmaceuticals, Inc., priority 2008, dated 2017) come the findings set out here.

Sequence of Ba/F3 V617F cells (O60674 whole entry V617F): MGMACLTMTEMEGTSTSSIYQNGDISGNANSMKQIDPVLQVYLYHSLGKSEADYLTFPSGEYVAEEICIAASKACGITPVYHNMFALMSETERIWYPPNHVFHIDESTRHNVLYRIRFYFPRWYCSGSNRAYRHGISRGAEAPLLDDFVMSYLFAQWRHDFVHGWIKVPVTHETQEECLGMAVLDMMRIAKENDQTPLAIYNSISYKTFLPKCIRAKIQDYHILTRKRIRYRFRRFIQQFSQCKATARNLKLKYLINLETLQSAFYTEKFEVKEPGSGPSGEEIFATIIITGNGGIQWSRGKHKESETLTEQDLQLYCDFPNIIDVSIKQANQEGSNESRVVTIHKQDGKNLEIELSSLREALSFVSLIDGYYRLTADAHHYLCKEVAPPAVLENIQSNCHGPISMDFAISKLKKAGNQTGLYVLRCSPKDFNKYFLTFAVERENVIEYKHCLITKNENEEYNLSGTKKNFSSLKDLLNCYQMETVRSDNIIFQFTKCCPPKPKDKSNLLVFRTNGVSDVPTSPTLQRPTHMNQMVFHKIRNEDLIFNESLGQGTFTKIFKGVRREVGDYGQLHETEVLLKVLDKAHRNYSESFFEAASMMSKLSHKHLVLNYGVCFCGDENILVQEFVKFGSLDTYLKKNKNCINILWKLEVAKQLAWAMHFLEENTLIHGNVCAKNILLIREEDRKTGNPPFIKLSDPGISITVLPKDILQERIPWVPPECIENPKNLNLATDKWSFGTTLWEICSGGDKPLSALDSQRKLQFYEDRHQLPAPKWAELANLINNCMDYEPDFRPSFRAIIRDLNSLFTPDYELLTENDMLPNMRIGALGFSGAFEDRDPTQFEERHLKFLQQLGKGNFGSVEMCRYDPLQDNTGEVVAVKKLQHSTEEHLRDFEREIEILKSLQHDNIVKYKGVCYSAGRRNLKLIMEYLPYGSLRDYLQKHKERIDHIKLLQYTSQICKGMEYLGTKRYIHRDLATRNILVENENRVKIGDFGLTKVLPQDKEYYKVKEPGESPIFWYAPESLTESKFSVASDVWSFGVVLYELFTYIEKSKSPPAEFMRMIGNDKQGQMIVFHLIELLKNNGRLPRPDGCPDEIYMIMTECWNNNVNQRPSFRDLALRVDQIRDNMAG

One test concerns the target Ba/F3 V617F cells (Homo sapiens, UniProt O60674, V617F, cells depend on it). As to the kind of experiment: Proliferation assay (Cell Titer-Glo, 72 h) utilizing Ba/F3 V617F cells. It is filed as cell-based, mouse. The note with it: Ba/F3 V617F cells, proliferation, level of activity given as class symbol, read-out: IC50 (the source's name). The method, then: Ba/F3 V617F cells are maintained and plated in RPMI with 10% FBS. Plating density for these cells is 1×10^5 cells/mL.
The cells were resuspended in a corresponding medium at a required cell density (see above). 100μ of cell suspension was added to each well of a flat bottom 96 well white plate. The compound was serially diluted in DMSO from 5 mM in 3-fold dilutions, and then diluted 1:250 in the RPMI 1640 medium containing 5% FBS and pen/strep. 100 μL of resulting 2× compound solution was added per well in duplicate and the cells were allowed to proliferate for 72 hours at 37° C.
Proliferation was measured using Cell Titer-Glo. The substrate was thawed and allowed to come to ambient temperature. After removal of top 100 μL of medium from each well, 100 μL of the premixed Cell Titer-Glo reagent was added to each well. The plates were mixed on an orbital shaker for three minutes to induce lysis and incubated at ambient temperature for an additional five minutes to allow the signal to equilibrate. The Luminescence was read on the Wallac Plate Reader.
The results of the ability of the compounds of the invention to inhibit JAK2 activity, when tested in the above assay utilizing Ba/F3 V617F cells, are shown in the following Tables 2-3 wherein the level of activity (i.e., the IC50) for each compound is indicated in Tables 2-3. The compound numbers in Tables 2-3 refers to the compounds disclosed herein as being prepared by the methods disclosed herein: […]
Take `CCCNc1ccc(-c2ccnc(Nc3ccc(N4CC5(C)CN(C)CC(C)(C4)C5)c(C)c3)n2)cn1` [compound 213, 4-(6-(propylamino)pyridin-3-yl)-N-(3-methyl-4-(1,5,7-trimethyl-3,7-diazabicyclo[3.3.1]nonan-3-yl)phenyl)pyrimidin-2-amine]: the GI50 was less than 1000 nM.

As for `COCCN(C)c1ccc(-c2ccnc(Nc3ccc(N4CC5(C)CN(C)CC(C)(C4)C5)c(C)c3)n2)cn1` [compound 221, 4-(6-(2-methoxyethyl)(methyl)aminopyridin-3-yl)-N-(3-methyl-4-(1,5,7-trimethyl-3,7-diazabicyclo[3.3.1]nonan-3-yl)phenyl)pyrimidin-2-amine], the GI50 is less than 1000 nM.

For `CN1C[C@@H]2C[C@H]1CN2c1ccc(Nc2nccc(-c3ccc4c(c3)SCC(=O)N4)n2)cc1` [compound 239, 4-(3-oxo-3,4-dihydro-2H-benzo[b][1,4]thiazin-7-yl)-N-(4-((1S,4S)-5-methyl-2,5-diazabicyclo[2.2.1]heptan-2-yl)phenyl)pyrimidin-2-amine], the GI50 was less than 1000 nM.

In the case of `Cc1cc(Nc2nccc(-c3ccc4c(c3)CCCC(=O)N4)n2)ccc1N1C[C@@H]2C[C@H]1CN2S(C)(=O)=O` [compound 243, 4-(2-oxo-2,3,4,5-tetrahydro-1H-benzo[b]azepin-7-yl)-N-(3-methyl-4-((1S,4S)-5-methylsulfonyl-2,5-diazabicyclo[2.2.1]heptan-2-yl)phenyl)pyrimidin-2-amine], the GI50 is less than 1000 nM.

Take `CC(=O)N1C[C@@H]2C[C@H]1CN2c1ccc(Nc2nccc(-c3ccc(OC4CCOCC4)nc3)n2)cc1Cl` [compound 260, 4-(6-(tetrahydropyran-4-yloxy)pyridin-3-yl)-N-(3-chloro-4-((1S,4S)-5-acetyl-2,5-diazabicyclo[2.2.1]heptan-2-yl)phenyl)pyrimidin-2-amine]: the GI50 was in the range of 1000 to 10000 nM.

Regarding `COCCN(C)c1ccc(-c2ccnc(Nc3ccc(N4C[C@@H]5C[C@H]4CN5C)c(C)c3)n2)cn1` [compound 219, 4-(6-(2-methoxyethyl)(methyl)aminopyridin-3-yl)-N-(3-methyl-4-((1S,4S)-5-methyl-2,5-diazabicyclo[2.2.1]heptan-2-yl)phenyl)pyrimidin-2-amine], the GI50 is less than 1000 nM.

As to `CN1C[C@@H]2C[C@H]1CN2c1ccc(Nc2nccc(-c3ccc4c(c3)SCC(=O)N4)n2)cc1C#N` [compound 273, 4-(3-oxo-3,4-dihydro-2H-benzo[b][1,4]thiazin-7-yl)-N-(3-cyano-4-((1S,4S)-5-methyl-2,5-diazabicyclo[2.2.1]heptan-2-yl)phenyl)pyrimidin-2-amine], the GI50 is less than 1000 nM.

In the case of `CCCNc1ccc(-c2ccnc(Nc3ccc(N4C[C@@H]5C[C@H]4CN5S(C)(=O)=O)c(C)c3)n2)cn1` [compound 238, 4-(6-(propylamino)pyridin-3-yl)-N-(3-methyl-4-((1S,4S)-5-methylsulfonyl-2,5-diazabicyclo[2.2.1]heptan-2-yl)phenyl)pyrimidin-2-amine], the GI50 is less than 1000 nM.

For the compound `Cc1cc(Nc2nccc(-c3cnc4c(c3)OC(C)(C)C(=O)N4)n2)ccc1N1C[C@@H]2C[C@H]1CN2C1CCCC1` [compound 250, 4-(2,2-dimethyl-3-oxo-3,4-dihydro-2H-pyrido[3,2-b][1,4]oxazin-7-yl)-N-(3-methyl-4-((1S,4S)-5-cyclopentyl-2,5-diazabicyclo[2.2.1]heptan-2-yl)phenyl)pyrimidin-2-amine], the GI50 was less than 1000 nM.

Regarding `Cc1cc(Nc2nccc(-c3ccc4c(c3)CCCC(=O)N4)n2)ccc1N1C[C@@H]2C[C@H]1CN2C` [compound 242, 4-(2-oxo-2,3,4,5-tetrahydro-1H-benzo[b]azepin-7-yl)-N-(3-methyl-4-((1S,4S)-5-methyl-2,5-diazabicyclo[2.2.1]heptan-2-yl)phenyl)pyrimidin-2-amine], the GI50 was less than 1000 nM.

Regarding `Cc1cc(Nc2nccc(-c3cnc4c(c3)CN3CCCC3C(=O)N4)n2)ccc1N1C[C@@H]2C[C@H]1CN2C` (stereo partly drawn) [compound 270, 4-(7,8,9,9a-tetrahydro-5H-pyrido[2,3-e]pyrrolo[1,2-a][1,4]diazepin-10(11H)-on-3-yl)-N-(3-methyl-4-((1S,4S)-5-methyl-2,5-diazabicyclo[2.2.1]heptan-2-yl)phenyl)pyrimidin-2-amine], the GI50 was less than 1000 nM.

The test is the same for the next values; noted with them: Ba/F3 V617F cells, proliferation, level of activity to inhibit JAK2, read-out: IC50 (the source's name).
`CCN1C[C@@H]2C[C@H]1CN2c1ccc(Nc2nccc(-c3cnc4c(c3)OC(C)(C)C(=O)N4)n2)cc1C` [compound 30, 4-(2,2-dimethyl-3-oxo-3,4-dihydro-2H-pyrido[3,2-b][1,4]oxazin-7-yl)-N-(3-methyl-4-((1S,4S)-5-ethyl-2,5-diazabicyclo[2.2.1]heptan-2-yl)phenyl)pyrimidin-2-amine]: the GI50 was less than 1000 nM.

Consider `CN1C[C@@H]2C[C@H]1CN2c1ccc(Nc2nccc(-c3cnc4[nH]ccc4c3)n2)cc1F` [compound 23, 4-(1H-pyrrolo[2,3-b]pyridin-5-yl)-N-(3-fluoro-4-((1S,4S)-5-methyl-2,5-diazabicyclo[2.2.1]heptan-2-yl)phenyl)pyrimidin-2-amine], for which the GI50 is less than 1000 nM.

As to `CN1C[C@H]2C[C@@H]1CN2c1ccc(Nc2nccc(-c3cnc4c(c3)OC(C)(C)C(=O)N4)n2)cc1F` [compound 73, 4-(2,2-dimethyl-3-oxo-3,4-dihydro-2H-pyrido[3,2-b][1,4]oxazin-7-yl)-N-(3-fluoro-4-((1R,4R)-5-methyl-2,5-diazabicyclo[2.2.1]heptan-2-yl)phenyl)pyrimidin-2-amine], the GI50 is less than 1000 nM.

As for `Cc1cc(Nc2nccc(-c3cnc4[nH]ccc4c3)n2)ccc1N1C[C@@H]2C[C@H]1CO2` [compound 33, 4-(1H-pyrrolo[2,3-b]pyridin-5-yl)-N-(3-methyl-4-((1S,4S)-5-oxa-2-azabicyclo[2.2.1]heptan-2-yl)phenyl)pyrimidin-2-amine], the GI50 is less than 1000 nM.

As to `CCOc1ccc(-c2ccnc(Nc3ccc(N4C[C@@H]5C[C@H]4CN5C)c(C)c3)n2)cn1` [compound 173, 4-(6-ethoxypyridin-3-yl)-N-(3-methyl-4-((1S,4S)-5-methyl-2,5-diazabicyclo[2.2.1]heptan-2-yl)phenyl)pyrimidin-2-amine], the GI50 is less than 1000 nM.

On to `CN1C2CCC1CN(c1ccc(Nc3nccc(-c4ccc(N)nc4)n3)cc1)C2` [compound 158, 4-(6-aminopyridin-3-yl)-N-(4-(8-methyl-3,8-diazabicyclo[3.2.1]octan-3-yl)phenyl)pyrimidin-2-amine], for which the GI50 is less than 1000 nM.

Turning to `Cc1cc(Nc2nccc(-c3ccc(C(=O)Nc4ccccn4)cc3)n2)ccc1N1C[C@@H]2C[C@H]1CN2C` [compound 134, 4-(4-((pyridin-2-yl)aminocarbonyl)phenyl)-N-(3-methyl-4-((1S,4S)-5-methyl-2,5-diazabicyclo[2.2.1]heptan-2-yl)phenyl)pyrimidin-2-amine], the GI50 was less than 1000 nM.

In the case of `Cc1cc(Nc2nccc(-c3ccc4ncn(C)c4c3)n2)ccc1N1CCN2CCC1C2` (stereo not drawn) [compound 122, (1-methylbenzimidazol-6-yl)-N-(3-methyl-4-(1,4-diazabicyclo[3.2.1]octan-4-yl)phenyl)pyrimidin-2-amine], the GI50 was less than 1000 nM.

In the case of `Cc1cc(Nc2nccc(-c3ccc(NS(C)(=O)=O)cc3)n2)ccc1N1C[C@@H]2C[C@H]1CN2C` [compound 136, 4-(4-(methylsulfonylamino)phenyl)-N-(3-methyl-4-((1S,4S)-5-methyl-2,5-diazabicyclo[2.2.1]heptan-2-yl)phenyl)pyrimidin-2-amine], the GI50 is less than 1000 nM.

Take `Cc1cc(Nc2nccc(-c3ccc(NC(=O)C(C)(C)C)cc3)n2)ccc1N1C[C@@H]2C[C@H]1CN2C` [compound 129, 4-(4-(t-butylcarbonylamino)phenyl)-N-(3-methyl-4-((1S,4S)-5-methyl-2,5-diazabicyclo[2.2.1]heptan-2-yl)phenyl)pyrimidin-2-amine]: the GI50 is less than 1000 nM.

Turning to `CN1CC2(C)CN(c3ccc(Nc4nccc(-c5ccc(N(C)C)cc5)n4)cc3F)CC(C)(C1)C2` [compound 84, 4-(4-(dimethylamino)phenyl)-N-(3-fluoro-4-(1,5,7-trimethyl-3,7-diazabicyclo[3.3.1]nonan-3-yl)phenyl)pyrimidin-2-amine], the GI50 was less than 1000 nM.

Still in this test, the particulars now being: inhibition of JAK2 activity, proliferation of Ba/F3 V617F cells, read-out: IC50 (the source's name).
`Cc1cc(-c2ccnc(Nc3cnc(N4C[C@@H]5C[C@H]4CN5C)c(C)c3)n2)cnc1N1CCOCC1` [compound 64, 4-(5-methyl-6-(morpholin-4-yl)pyridin-3-yl)-N-(5-methyl-6-((1S,4S)-5-methyl-2,5-diazabicyclo[2.2.1]heptan-2-yl)pyridin-3-yl)pyrimidin-2-amine]: the GI50 was less than 1000 nM.

As for `Cc1cc(Nc2nccc(-c3ccc(NC(=O)CN4CCOCC4)nc3)n2)cnc1N1C[C@@H]2C[C@H]1CN2C` [compound 144, 4-(6-(2-(morpholin-4-yl)acetamido)pyridin-3-yl)-N-(5-methyl-6-((1S,4S)-5-methyl-2,5-diazabicyclo[2.2.1]heptan-2-yl)pyridin-3-yl)pyrimidin-2-amine], the GI50 fell in the range of 1000 to 10000 nM.
